Columns and labels:
HT55 (colorectal cancer) = experiment: Methyl-Tetrazolium viability assay, HT55; assay type: cell-based, human; parameters: key: absorbance (optical density) at 570 nm, second wavelength subtracted
Description: (§1) Three different viability assays were chosen to complement each other and yielded results dependent on concentration and cell line: the Methyl Tetrazolium dye assay, the Sulforhodamine B fluorescent dye assay, and the Crystal Violet dye assay.
(§2) The Methyl-Tetrazolium dye assay measures the activity of enzymes in mitochondria. The dye precursor is taken up by cells, where it undergoes reduction to the purple formazan. It measures only the mitochondrial activity and, thus, it is not always a reliable indication of whether the cells themselves are alive or dead, since even a recently dead cell has […] enzyme activity in mitochondria. Intracellular glucose concentration, pH, and time before assay all affect the measurements.
(§3) The Methyl Tetrazolium, Sulforhodamine B, and Crystal Violet assays were used to assess cell viabilities. The incubation times were 24 hours, 48 hours, and 72 hours. The Nerium oleander extract Anvirzel™ (a hot water extract of oleander obtained from Salud Integral, Honduras) was tested in concentrations ranging from 0.01 ng/mL to 10 ng/mL.
(§4) Cells were detached by trypsinization (Trypsin-0.25% EDTA, Invitrogen, 25200-072) during the logarithmic phase of culture growth and plated in 96-well plates (18.000 cells/well) (Corning, Costar 359) in a final volume of 200 μl of medium per well. […] The absorbance was measured after 24 hours, 48 hours, and 72 hours of incubation.
(§5) For the Methyl-Tetrazolium assay, the dye (Sigma, M2128; 5 mg/mL, diluted in phosphate-buffered saline) was added to each well and plates were incubated for 3 hours at 37° C. After the end of the incubation period, the medium was discarded and the cells were rinsed with phosphate-buffered saline. Finally, the formazan crystals were dissolved in dimethylsulphoxide (Sigma, D4540).
(§6) The optical density of each plate was measured on a μQuant spectrophotometer and the data were analyzed with Gen5 software (μQuant Biomolecular Spectrophotometer MQX200 and Gen5™ Microplate Data Collection & Analysis software, BioTek® Instruments. Inc, April 2008). Absorbance was measured at 570 nm for all assays and a second wavelength was measured in order to subtract noise. For the Methyl-Tetrazolium assay this second wavelength was 630 nm and for the Sulforhodamine B and Crystal Violet assays it was 690 nm.

[1] = system: A375 melanoma cancer cell line; experiment: Methyl-Tetrazolium viability assay, A375; assay type: cell-based, human; conditions: for ABSORBANCE: 0.1 μg/mL cisplatin; for Average absorbance, MTT 24 h / Average absorbance, MTT 48 h / Average absorbance, MTT 72 h: A375 Run 1
Description: as §1, §2, §3, §4, §5, §6

In the case of `N.N.[Cl][Pt][Cl]` [cisplatin], the “MTT Average” value (HT55 (colorectal cancer); HT55, Run 1, 24 h, 0.1 μg/ml CDDP) is reported as 0.096, the “MTT Average” value (HT55 (colorectal cancer); HT55, Run 1, 24 h, 1 μg/ml CDDP) is reported as 0.02 and the “MTT Average” value (HT55 (colorectal cancer); HT55, Run 1, 24 h, 10 μg/ml CDDP) is reported as 0.054. The “MTT Average” value (HT55 (colorectal cancer); HT55, Run 1, 24 h, 100 μg/ml CDDP) was 0.019, the “MTT Average” value (HT55 (colorectal cancer); HT55, Run 1, 48 h, 0.1 μg/ml CDDP) was 0.177 and the “MTT Average” value (HT55 (colorectal cancer); HT55, Run 1, 48 h, 1 μg/ml CDDP) was 0.015. For the same molecule, the “MTT Average” value (HT55 (colorectal cancer); HT55, Run 1, 48 h, 10 μg/ml CDDP) was 0.03, the “MTT Average” value (HT55 (colorectal cancer); HT55, Run 1, 48 h, 100 μg/ml CDDP) was 0.012 and the “MTT Average” value (HT55 (colorectal cancer); HT55, Run 1, 72 h, 0.1 μg/ml CDDP) was 0.315. For the same molecule, the “MTT Average” value (HT55 (colorectal cancer); HT55, Run 1, 72 h, 1 μg/ml CDDP) was 0.025, the “MTT Average” value (HT55 (colorectal cancer); HT55, Run 1, 72 h, 10 μg/ml CDDP) was 0.026 and the “MTT Average” value (HT55 (colorectal cancer); HT55, Run 1, 72 h, 100 μg/ml CDDP) was 0.017. For the same molecule, the “MTT Average” value (HT55 (colorectal cancer); HT55 Run 2, 24 h, 0.1 μg/ml CDDP) was 0.215, the “MTT Average” value (HT55 (colorectal cancer); HT55 Run 2, 24 h, 1 μg/ml CDDP) was 0.023 and the “MTT Average” value (HT55 (colorectal cancer); HT55 Run 2, 24 h, 10 μg/ml CDDP) was 0.053. The “MTT Average” value (HT55 (colorectal cancer); HT55 Run 2, 24 h, 100 μg/ml CDDP) was 0.018, the “MTT Average” value (HT55 (colorectal cancer); HT55 Run 2, 48 h, 0.1 μg/ml CDDP) was 0.381 and the “MTT Average” value (HT55 (colorectal cancer); HT55 Run 2, 48 h, 1 μg/ml CDDP) was 0.028. For the same molecule, the “MTT Average” value (HT55 (colorectal cancer); HT55 Run 2, 48 h, 10 μg/ml CDDP) was 0.031, the “MTT Average” value (HT55 (colorectal cancer); HT55 Run 2, 48 h, 100 μg/ml CDDP) was 0.025 and the “MTT Average” value (HT55 (colorectal cancer); HT55 Run 2, 72 h, 0.1 μg/ml CDDP) was 0.488. For the same molecule, the “MTT Average” value (HT55 (colorectal cancer); HT55 Run 2, 72 h, 1 μg/ml CDDP) was 0.032, the “MTT Average” value (HT55 (colorectal cancer); HT55 Run 2, 72 h, 10 μg/ml CDDP) was 0.028 and the “MTT Average” value (HT55 (colorectal cancer); HT55 Run 2, 72 h, 100 μg/ml CDDP) was 0.021. For the same molecule, the “MTT Average” value (HT55 (colorectal cancer); HT55 Run 3, 24 h, 0.1 μg/ml CDDP) was 0.205, the “MTT Average” value (HT55 (colorectal cancer); HT55 Run 3, 24 h, 1 μg/ml CDDP) was 0.035 and the “MTT Average” value (HT55 (colorectal cancer); HT55 Run 3, 24 h, 10 μg/ml CDDP) was 0.206. The “MTT Average” value (HT55 (colorectal cancer); HT55 Run 3, 24 h, 100 μg/ml CDDP) was 0.028, the “MTT Average” value (HT55 (colorectal cancer); HT55 Run 3, 48 h, 0.1 μg/ml CDDP) was 0.331 and the “MTT Average” value (HT55 (colorectal cancer); HT55 Run 3, 48 h, 1 μg/ml CDDP) was 0.04. For the same molecule, the “MTT Average” value (HT55 (colorectal cancer); HT55 Run 3, 48 h, 10 μg/ml CDDP) was 0.361, the “MTT Average” value (HT55 (colorectal cancer); HT55 Run 3, 48 h, 100 μg/ml CDDP) was 0.038 and the “MTT Average” value (HT55 (colorectal cancer); HT55 Run 3, 72 h, 0.1 μg/ml CDDP) was 0.359. For the same molecule, the “MTT Average” value (HT55 (colorectal cancer); HT55 Run 3, 72 h, 1 μg/ml CDDP) was 0.032, the “MTT Average” value (HT55 (colorectal cancer); HT55 Run 3, 72 h, 10 μg/ml CDDP) was 0.353 and the “MTT Average” value (HT55 (colorectal cancer); HT55 Run 3, 72 h, 100 μg/ml CDDP) was 0.031. The ABSORBANCE ([1]; A375, 48 h) was 0.332, the ABSORBANCE ([1]; A375, 72 h) was 0.479 and the “Average absorbance, MTT 24 h” value ([1]; 0.1 μg/ml CDDP) was 0.34. The “Average absorbance, MTT 48 h” value ([1]; 0.1 μg/ml CDDP) was 0.332, the “Average absorbance, MTT 72 h” value ([1]; 0.1 μg/ml CDDP) was 0.479 and the “Average absorbance, MTT 24 h” value ([1]; 1 μg/ml CDDP) was 0.068. The “Average absorbance, MTT 48 h” value ([1]; 1 μg/ml CDDP) was 0.048, the “Average absorbance, MTT 72 h” value ([1]; 1 μg/ml CDDP) was 0.042 and the “Average absorbance, MTT 24 h” value ([1]; 10 μg/ml CDDP) was 0.066. For the same molecule, the “Average absorbance, MTT 48 h” value ([1]; 10 μg/ml CDDP) was 0.044, the “Average absorbance, MTT 72 h” value ([1]; 10 μg/ml CDDP) was 0.04 and the “Average absorbance, MTT 24 h” value ([1]; 100 μg/ml CDDP) was 0.049. For the same molecule, the “Average absorbance, MTT 48 h” value ([1]; 100 μg/ml CDDP) was 0.038, the “Average absorbance, MTT 72 h” value ([1]; 100 μg/ml CDDP) was 0.036 and the “Average absorbance MTT” value ([1]; A375 Run 2, 24 h, 0.1 μg/ml CDDP) was 0.367. The “Average absorbance MTT” value ([1]; A375 Run 2, 24 h, 1 μg/ml CDDP) was 0.047, the “Average absorbance MTT” value ([1]; A375 Run 2, 24 h, 10 μg/ml CDDP) was 0.049 and the “Average absorbance MTT” value ([1]; A375 Run 2, 24 h, 100 μg/ml CDDP) was 0.031. The “Average absorbance MTT” value ([1]; A375 Run 2, 48 h, 0.1 μg/ml CDDP) was 0.598, the “Average absorbance MTT” value ([1]; A375 Run 2, 48 h, 1 μg/ml CDDP) was 0.046 and the “Average absorbance MTT” value ([1]; A375 Run 2, 48 h, 10 μg/ml CDDP) was 0.045. For the same molecule, the “Average absorbance MTT” value ([1]; A375 Run 2, 48 h, 100 μg/ml CDDP) was 0.048, the “Average absorbance MTT” value ([1]; A375 Run 2, 72 h, 0.1 μg/ml CDDP) was 0.696 and the “Average absorbance MTT” value ([1]; A375 Run 2, 72 h, 1 μg/ml CDDP) was 0.049. For the same molecule, the “Average absorbance MTT” value ([1]; A375 Run 2, 72 h, 10 μg/ml CDDP) was 0.042, the “Average absorbance MTT” value ([1]; A375 Run 2, 72 h, 100 μg/ml CDDP) was 0.038 and the “Average absorbance MTT” value ([1]; A375 Run 3, 24 h, 0.1 μg/ml CDDP) was 0.25. For the same molecule, the “Average absorbance MTT” value ([1]; A375 Run 3, 24 h, 1 μg/ml CDDP) was 0.052, the “Average absorbance MTT” value ([1]; A375 Run 3, 24 h, 10 μg/ml CDDP) was 0.054 and the “Average absorbance MTT” value ([1]; A375 Run 3, 24 h, 100 μg/ml CDDP) was 0.01. The “Average absorbance MTT” value ([1]; A375 Run 3, 48 h, 0.1 μg/ml CDDP) was 0.422, the “Average absorbance MTT” value ([1]; A375 Run 3, 48 h, 1 μg/ml CDDP) was 0.041 and the “Average absorbance MTT” value ([1]; A375 Run 3, 48 h, 10 μg/ml CDDP) was 0.037. The “Average absorbance MTT” value ([1]; A375 Run 3, 48 h, 100 μg/ml CDDP) was 0.036, the “Average absorbance MTT” value ([1]; A375 Run 3, 72 h, 0.1 μg/ml CDDP) was 0.413 and the “Average absorbance MTT” value ([1]; A375 Run 3, 72 h, 1 μg/ml CDDP) was 0.026. The “Average absorbance MTT” value ([1]; A375 Run 3, 72 h, 10 μg/ml CDDP) was 0.033 and the “Average absorbance MTT” value ([1]; A375 Run 3, 72 h, 100 μg/ml CDDP) was 0.031.

— US20190343908A1, “Therapeutic Combination for the Treatment of Cancer” (Nerium Biotechnology Inc., priority 2011, published 2019)
